Patent publication US20240024347A1 (The Johns Hopkins University, priority 2020, published 2024)
Where two headings read alike, the source gives them in different places.

Tests used:
[1] = ALT (liver inflammation marker) and animal weight in sarcoma-model mice
Procedure: (§1) C57BL/6 mice at 10 weeks of age between 25 g and 30 g were obtained from Envigo. To induce solid tumor growth in animals, 3-5 million murine NPcis (NF1^+/−;p53^+/−) tumor cells grown and harvested from cell culture, were injected subcutaneously to the right flank. […] Animals were then randomly assigned to a treatment arm: Vehicle or MK-905 (n=10/group; average tumor volume of ˜200 mm^3). […] Tumor volume was calculated by the formula: volume=(L×(W^2))/2. […]

[2] = Single timepoint drug metabolite testing (6-TGMP in mouse plasma) after first dose; format: in vivo; settings: two hours following initial dose
Procedure: (§2) The in vivo antitumor efficacy of MK-905 was evaluated in the NALM6-Luc-mCh-Puro human acute lymphoblastic leukemia in female NSG mice. Mice were inoculated with tumor cells on day 0, staged by BLI on day 3, and sorted into matched treatment groups. The primary endpoint of the study was tumor bioluminescence imaging (BLI) signal. Secondary endpoints included: animal survival, weight changes, and clinical pathology markers. Single timepoint drug metabolite testing was conducted after the first dose of MK-905. Studies were run in comparison to vehicle or 6-MP treatment.

[3] = system: NALM6-Luc-mCh-Puro human acute lymphoblastic leukemia; assay: In vivo antitumor efficacy, NALM6-Luc-mCh-Puro leukemia in female NSG mice (BLI); settings: MK-905 40 then 20 mg/kg i.p./day, 6-MP 20 then 10 mg/kg i.p./day; for day 15 mean BLI signal: 5 days/week, vehicle 1.65×10^10; for percent of the median vehicle group tumor BLI signal: day 15
Procedure: as §2

[4] = system: murine NPcis (NF1^+/−;p53^+/−) tumor cells; assay: Tumor growth in murine sarcoma model (subcutaneous NPcis flank tumors); format: in vivo, mouse
Procedure: as §1

[5] = system: healthy NSG mice; settings: for mice survived >2 weeks: 40 mg/kg group; for Mice surviving >2 weeks: 5 d/week, i.p., healthy female NSG mice, n=5/group
Procedure: Animal weights and body condition scores were measured three times per week. After twenty one days, surviving mice were euthanized and blood collected for clinical chemistry measurements (complete blood count with differential, clinical chemistries). […] 80% of mice survived >2 weeks in the MK-905 40 mg/kg group, and 100% of mice survived the study in the vehicle and MK-905 20 mg/kg groups.

| SMILES | blood ALT increase compared to vehicle-treated mice ([1]; at sacrifice, 6-MP 20 mg/kg i.p., ten days) | blood ALT as a marker of liver inflammation ([1]; at sacrifice, 6-MP 20 mg/kg i.p., ten days, vehicle 20 U/L) [U/L] | conversion to the active 6-thioguanine monophosphate (6-TGMP) metabolite [2] | day 15 mean BLI signal [3] | percent of the median vehicle group tumor BLI signal [3] [%] | mean tumor volume ([4]; 6-MP 20 mg/kg i.p., following ten days of dosing, vehicle 2,038 mm^3) | mice survived >2 weeks ([5]; healthy NSG mice) | Animal weights relative to starting weight ([1]; MK-905 13 mg/kg i.p., fourteen days) [%] | Serum ALT as a marker of liver inflammation (in words) ([1]; MK-905 13 mg/kg i.p., fourteen days, versus vehicle) | mean tumor volume ([4]; MK-905 13 mg/kg i.p., following fourteen days of dosing, vehicle 1,657 mm^3) [mm^3] | Tumor weights at sacrifice ([4]; MK-905 13 mg/kg i.p., fourteen days, vehicle 1276 mg) [mg] | mice survived the study ([5]; 20 mg/kg group, healthy NSG mice, twenty one days) [%] | Mice surviving >2 weeks ([5]; 20 mg/kg) | Mice surviving >2 weeks ([5]; 40 mg/kg) |
| --- | --- | --- | --- | --- | --- | --- | --- | --- | --- | --- | --- | --- | --- | --- |
| Sc1ncnc2nc[nH]c12 [6-MP, 6-mercaptopurine, reference compound] | two-fold increased | 46 | no active metabolite was observed | 1.36×10^10 photons/sec | 77 | 1,107 mm^3 | no mice surviving | – | – | – | – | – | – | – |
| CC(C)OC(=O)[C@H](C)NP(=O)(OC[C@H]1OC(n2cnc3c(=S)[nH]c(N)nc32)C(O)C1O)Oc1ccccc1 (stereo partly drawn) [MK-905] | – | – | observed | 3.27×10^8 photons/sec | 1.3 | – | 80% | ≤ 10 | normal and not significantly different | 415 | 359 | 100 | 5/5 | 4/5 |
